Legend:
Assay in all cases: relative viability (nuclei count vs DMSO), 5 days (fraction); higher = more cells survive
Wnt-C59 + Dasatinib = compound: CC1=NC=CC(=C1)C2=CC=C(C=C2)CC(=O)NC3=CC=C(C=C3)C4=CN=CC=C4 [Wnt-C59] + Cc1nc(Nc2ncc(C(=O)Nc3c(C)cccc3Cl)s2)cc(N2CCN(CCO)CC2)n1 [Dasatinib] (partner 0.075 µM)
Procedure, shortened: (§1)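 A single step with final 0.05% Triton X-100, 1% formaldehyde and 1 ug/ml Hoechst fixed the cells and stained nuclei 5 days after treatment. Lung cancer cell lines in 1536-well plates had been treated by pin tool the day after seeding with one drug alone or a fixed anchor-drug dose plus five library-drug doses (not always all listed) in √10 steps, and nuclei were counted on 4× images. Relative viability is the ratio of nuclei in treated wells to nuclei in vehicle wells, taken as the median of duplicate plates.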

Lapatinib + Trametinib = compound: CS(=O)(=O)CCNCc1ccc(-c2ccc3ncnc(Nc4ccc(OCc5cccc(F)c5)c(Cl)c4)c3c2)o1 [Lapatinib] + CC(=O)Nc1cccc(-n2c(=O)n(C3CC3)c(=O)c3c(Nc4ccc(I)cc4F)n(C)c(=O)c(C)c32)c1 [Trametinib] (partner 0.02 µM)
Procedure, shortened: as §1

Lapatinib + Navitoclax = compound: CS(=O)(=O)CCNCc1ccc(-c2ccc3ncnc(Nc4ccc(OCc5cccc(F)c5)c(Cl)c4)c3c2)o1 [Lapatinib] + CC1(C)CCC(c2ccc(Cl)cc2)=C(CN2CCN(c3ccc(C(=O)NS(=O)(=O)c4ccc(N[C@H](CCN5CCOCC5)CSc5ccccc5)c(S(=O)(=O)C(F)(F)F)c4)cc3)CC2)C1 [Navitoclax] (partner 0.5 µM)
Procedure, shortened: as §1

Lapatinib + Alpelisib = compound: CS(=O)(=O)CCNCc1ccc(-c2ccc3ncnc(Nc4ccc(OCc5cccc(F)c5)c(Cl)c4)c3c2)o1 [Lapatinib] + Cc1nc(NC(=O)N2CCC[C@H]2C(N)=O)sc1-c1ccnc(C(C)(C)C(F)(F)F)c1 [Alpelisib] (partner 2 µM)
Procedure, shortened: as §1

| Cell Line | relative viability (Wnt-C59 + Dasatinib; first compound 0.001 µM) | relative viability (Wnt-C59 + Dasatinib; first compound 0.01 µM) | relative viability (Wnt-C59 + Dasatinib; first compound 0.03162 µM) | relative viability (Wnt-C59 + Dasatinib; first compound 0.1 µM) | relative viability (Lapatinib + Trametinib; first compound 0.06325 µM) | relative viability (Lapatinib + Trametinib; first compound 0.2 µM) | relative viability (Lapatinib + Trametinib; first compound 0.6325 µM) | relative viability (Lapatinib + Trametinib; first compound 2 µM) | relative viability (Lapatinib + Navitoclax; first compound 0.02 µM) | relative viability (Lapatinib + Navitoclax; first compound 0.06325 µM) | relative viability (Lapatinib + Navitoclax; first compound 0.2 µM) | relative viability (Lapatinib + Navitoclax; first compound 0.6325 µM) | relative viability (Lapatinib + Navitoclax; first compound 2 µM) | relative viability (Lapatinib + Alpelisib; first compound 0.02 µM) | relative viability (Lapatinib + Alpelisib; first compound 0.06325 µM) | relative viability (Lapatinib + Alpelisib; first compound 0.2 µM) | relative viability (Lapatinib + Alpelisib; first compound 0.6325 µM) | relative viability (Lapatinib + Alpelisib; first compound 2 µM) | relative viability (Lapatinib + Trametinib; first compound 0.02 µM) |
| --- | --- | --- | --- | --- | --- | --- | --- | --- | --- | --- | --- | --- | --- | --- | --- | --- | --- | --- | --- |
| NCI-H596 | 0.609 | 0.477 | 0.554 | 0.611 | 0.745 | 0.777 | 0.854 | 0.617 | 0.978 | 0.95 | 0.922 | 0.97 | 0.706 | 0.481 | 0.48 | 0.425 | 0.554 | 0.446 | – |
| NCI-H1975 | 0.412 | 0.31 | 0.349 | 0.447 | 0.282 | 0.328 | 0.384 | 0.254 | 0.993 | 1.09 | 1.04 | 0.918 | 0.867 | 0.662 | 0.58 | 0.537 | 0.573 | 0.462 | 0.264 |
| HCC-78 | 0.392 | 0.428 | 0.387 | 0.419 | 0.509 | 0.668 | 0.681 | 0.675 | – | 0.651 | 0.752 | 0.57 | 0.699 | – | 0.277 | 0.305 | 0.26 | 0.15 | – |
| H3255 | 0.425 | 0.359 | 0.32 | 0.335 | 0.49 | 0.623 | 0.516 | 0.25 | 0.476 | 0.512 | 0.37 | 0.464 | 0.111 | 0.591 | 0.506 | 0.643 | 0.635 | 0.232 | – |
| RERF-LC-KJ | 0.866 | 0.847 | 1.04 | 0.79 | 0.903 | 0.758 | 0.792 | 0.642 | 0.933 | 0.894 | 0.755 | 0.888 | 0.592 | 0.729 | 0.463 | 0.673 | 0.655 | 0.468 | 0.854 |
| SW 1573 | 0.557 | 0.699 | 0.67 | 0.314 | 0.577 | 0.527 | 0.606 | 0.515 | 0.902 | 0.974 | 1.16 | 0.92 | 0.882 | 0.705 | 0.648 | 0.635 | 0.821 | 0.843 | – |
| NCI-H23 | 0.885 | 0.734 | 0.829 | 0.698 | – | 0.368 | 0.467 | 0.398 | – | – | 0.836 | 0.777 | 0.615 | – | – | 0.737 | 0.719 | 0.521 | – |
| HCC-15 | 0.667 | 0.634 | 0.644 | 0.574 | 0.243 | 0.386 | 0.312 | 0.341 | – | 0.679 | 0.704 | 0.635 | 0.599 | – | 0.799 | 0.843 | 0.857 | 0.797 | – |
| LU99A | 0.55 | 0.506 | 0.501 | 0.538 | 0.453 | 0.448 | 0.511 | 0.536 | 0.829 | 0.63 | 0.805 | 0.886 | 0.725 | 0.564 | 0.476 | 0.527 | 0.524 | 0.54 | 0.532 |

From the supplement of paper PMC10307832
